Measurements: US20230278995A1, “1,3,4-OXADIAZOLE DERIVATIVE COMPOUNDS AS HISTONE DEACETYLASE 6 INHIBITOR, AND THE PHARMACEUTICAL COMPOSITION COMPRISING THE SAME” (CHONG KUN DANG PHARMACEUTICAL CORP., priority 2020, published 2023)

Assays:
human recombinant HDAC6 = target: T1, human recombinant HDAC6 (Homo sapiens, UniProt Q9UBN7); assay: HDAC enzyme activity inhibition assay (HDAC Fluorimetric Drug Discovery Kit), HDAC6; type: biochemical; settings: for HDAC6 selectivity (fold): HDAC1 vs HDAC6; for IC50: human recombinant HDAC6, same protocol as HDAC1
T1 construct: purchased Calbiochem Inc. 382180
T1 sequence (Q9UBN7 1-1215): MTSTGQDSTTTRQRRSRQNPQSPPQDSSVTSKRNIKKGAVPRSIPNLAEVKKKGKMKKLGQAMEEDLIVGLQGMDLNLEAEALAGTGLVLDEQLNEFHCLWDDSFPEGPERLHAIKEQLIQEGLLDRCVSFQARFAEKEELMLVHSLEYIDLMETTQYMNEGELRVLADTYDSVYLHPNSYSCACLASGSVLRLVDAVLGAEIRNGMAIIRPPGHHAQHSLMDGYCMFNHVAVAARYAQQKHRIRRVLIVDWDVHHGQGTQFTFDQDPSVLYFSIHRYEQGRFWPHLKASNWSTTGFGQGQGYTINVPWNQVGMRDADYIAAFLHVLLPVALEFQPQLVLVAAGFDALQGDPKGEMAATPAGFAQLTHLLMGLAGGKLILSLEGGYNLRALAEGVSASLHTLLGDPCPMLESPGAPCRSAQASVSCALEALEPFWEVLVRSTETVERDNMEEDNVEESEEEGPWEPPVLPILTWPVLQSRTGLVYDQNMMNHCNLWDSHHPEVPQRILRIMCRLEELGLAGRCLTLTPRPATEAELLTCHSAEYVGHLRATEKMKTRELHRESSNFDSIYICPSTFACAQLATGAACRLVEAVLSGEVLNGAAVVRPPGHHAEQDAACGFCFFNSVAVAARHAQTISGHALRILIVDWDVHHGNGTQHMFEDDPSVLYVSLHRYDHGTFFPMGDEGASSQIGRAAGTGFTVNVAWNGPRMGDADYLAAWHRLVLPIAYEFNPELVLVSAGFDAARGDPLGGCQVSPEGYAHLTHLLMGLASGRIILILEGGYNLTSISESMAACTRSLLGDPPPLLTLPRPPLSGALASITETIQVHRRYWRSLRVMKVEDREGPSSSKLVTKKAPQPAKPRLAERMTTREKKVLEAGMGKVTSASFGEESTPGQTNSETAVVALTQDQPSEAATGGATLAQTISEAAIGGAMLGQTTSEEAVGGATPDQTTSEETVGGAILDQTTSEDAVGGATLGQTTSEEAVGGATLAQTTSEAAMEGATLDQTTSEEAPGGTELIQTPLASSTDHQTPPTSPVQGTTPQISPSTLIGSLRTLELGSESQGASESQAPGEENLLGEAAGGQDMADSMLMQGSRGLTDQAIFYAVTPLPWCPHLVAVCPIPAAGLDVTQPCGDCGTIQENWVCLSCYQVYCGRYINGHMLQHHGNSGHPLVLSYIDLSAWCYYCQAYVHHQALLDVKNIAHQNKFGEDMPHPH
Protocol: (§1) For the HDAC1 enzyme activity test, human recombinant HDAC1 (BML-SE456) was used as an enzyme source and Fluor de Lys©-SIRT1 (BNL-K1177) was used as a substrate. After dispensing 5-fold diluted compounds into a 96-well plate, 0.3 μg of enzyme and 10 μM substrate were added to each well of the plate and allowed to react at 30° C. for 60 minutes. Next, Fluor de Lys© Developer II (BML-K1176) was added and reacted for 30 minutes to complete the reaction, and then the fluorescence values (Ex 360, Em 460) were measured using a multi-plate reader (Flexstation 3, Molecular Device). The HDAC6 enzymes were tested using human recombinant HDAC6 (382180) from Calbiochem Inc., according to the same protocol as the HDAC1 enzyme activity test method. With respect to the final result values, respective IC50 values were calculated using GraphPad Prism 4.0 program (Table 2).

human recombinant HDAC1 = target: T2, human recombinant HDAC1 (Homo sapiens, UniProt Q13547); assay: HDAC enzyme activity inhibition assay (HDAC Fluorimetric Drug Discovery Kit), HDAC1; type: biochemical; settings: human recombinant HDAC1, Fluor de Lys-SIRT1 substrate, 30° C. 60 minutes
T2 construct: purchased Enzo Life Sciences, Inc. BML-SE456
Protocol: as §1

T2 sequence (Q13547 whole entry): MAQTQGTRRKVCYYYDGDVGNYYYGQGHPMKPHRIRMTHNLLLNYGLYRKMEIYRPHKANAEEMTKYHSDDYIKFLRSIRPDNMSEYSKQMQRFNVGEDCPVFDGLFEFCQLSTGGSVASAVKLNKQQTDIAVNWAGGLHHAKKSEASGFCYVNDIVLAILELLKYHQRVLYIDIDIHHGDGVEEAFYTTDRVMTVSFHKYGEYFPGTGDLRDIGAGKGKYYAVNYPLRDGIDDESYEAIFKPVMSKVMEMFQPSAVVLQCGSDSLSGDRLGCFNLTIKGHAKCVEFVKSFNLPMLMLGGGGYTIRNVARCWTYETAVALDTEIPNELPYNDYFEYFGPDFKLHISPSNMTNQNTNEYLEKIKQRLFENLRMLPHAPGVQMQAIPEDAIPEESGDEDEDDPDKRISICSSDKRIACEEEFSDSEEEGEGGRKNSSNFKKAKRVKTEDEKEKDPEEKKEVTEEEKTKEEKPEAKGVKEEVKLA

HDAC6 selectivity (fold) (human recombinant HDAC6) | IC50 (human recombinant HDAC6) [nM] | IC50 (human recombinant HDAC1) [nM] | Structure (SMILES)
1,046 fold | 47.8 | > 50000 | CC(C)N1CCC(F)(C(=O)N(Cc2ccc(-c3nnc(C(F)F)o3)cn2)c2cccc(F)c2)CC1 [Compound 2970, N-((5-(5-(difluoromethyl)-1,3,4-oxadiazol-2-yl)pyridin-2-yl)methyl)-4-fluoro-N-(3-fluorophenyl)-1-isopropylpiperidine-4-carboxamide]
1,569 fold | 20.1 | 31500 | O=C(N(Cc1ccc(-c2nnc(C(F)F)o2)cn1)c1cccc(F)c1)C1(F)CN(C2CN(C3CCOCC3)C2)C1 [Compound 3399, N-((5-(5-(difluoromethyl)-1,3,4-oxadiazol-2-yl)pyridin-2-yl)methyl)-3-fluoro-N-(3-fluorophenyl)-1′-(tetrahydro-2H-pyran-4-yl)-[1,3′-biazetidine]-3-carboxamide]
149 fold | 134 | > 20000 | CN1CCC(F)(C(=O)N(Cc2ccc(-c3nnc(C(F)F)o3)cc2F)c2ccccc2)CC1 [Compound 2866, N-(4-(5-(difluoromethyl)-1,3,4-oxadiazol-2-yl)-2-fluorobenzyl)-4-fluoro-1-methyl-N-phenylpiperidine-4-carboxamide]
238 fold | 210 | > 50000 | CCC(=O)N1CCC(F)(C(=O)N(Cc2ccc(-c3nnc(C(F)F)o3)cc2F)c2ccccc2)CC1 [Compound 3439, N-(4-(5-(difluoromethyl)-1,3,4-oxadiazol-2-yl)-2-fluorobenzyl)-4-fluoro-N-phenyl-1-propionylpiperidine-4-carboxamide]
392 fold | 55 | 21600 | O=C(N(Cc1ccc(-c2nnc(C(F)F)o2)cn1)c1cccc(F)c1)C1(F)CN(C2CCC2)C1 [Compound 3049, 1-cyclobutyl-N-((5-(5-(difluoromethyl)-1,3,4-oxadiazol-2-yl)pyridin-2-yl)methyl)-3-fluoro-N-(3-fluorophenyl)azetidine-3-carboxamide]
1,135 fold | 32.6 | 37000 | O=C(N(Cc1ccc(-c2nnc(C(F)F)o2)cn1)c1cccc(F)c1)C1(F)CN(C2CCN(C3CCOC3)CC2)C1 (stereo not drawn) [Compound 3408, N-((5-(5-(difluoromethyl)-1,3,4-oxadiazol-2-yl)pyridin-2-yl)methyl)-3-fluoro-N-(3-fluorophenyl)-1-(1-(tetrahydrofuran-3-yl)piperidin-4-yl)azetidine-3-carboxamide]
741 fold | 67.4 | > 50000 | CC(C)CC(=O)N1CC(F)(C(=O)N(Cc2ccc(-c3nnc(C(F)F)o3)cn2)c2cccc(F)c2)C1 [Compound 3166, N-((5-(5-(difluoromethyl)-1,3,4-oxadiazol-2-yl)pyridin-2-yl)methyl)-3-fluoro-N-(3-fluorophenyl)-1-(3-methylbutanoyl)azetidine-3-carboxamide]
734 fold | 36.2 | 26600 | O=C(N(Cc1ccc(-c2nnc(C(F)F)o2)cn1)c1cccc(F)c1)C1(F)CN(C2CCN(C3COC3)CC2)C1 [Compound 3406, N-((5-(5-(difluoromethyl)-1,3,4-oxadiazol-2-yl)pyridin-2-yl)methyl)-3-fluoro-N-(3-fluorophenyl)-1-(1-(oxetan-3-yl)piperidin-4-yl)azetidine-3-carboxamide]
1,650 fold | 30.3 | > 50000 | O=C(C1CCC1)N1CC(F)(C(=O)N(Cc2ccc(-c3nnc(C(F)F)o3)cn2)c2ccccc2)C1 [Compound 3159, 1-(cyclobutanecarbonyl)-N-((5-(5-(difluoromethyl)-1,3,4-oxadiazol-2-yl)pyridin-2-yl)methyl)-3-fluoro-N-phenylazetidine-3-carboxamide]
1,886 fold | 26.5 | > 50000 | O=C(N(Cc1ccc(-c2nnc(C(F)F)o2)cn1)c1cccc(F)c1)C1(F)CN(C2CN(C3CCC3)C2)C1 [Compound 3394, 1′-cyclobutyl-N-((5-(5-(difluoromethyl)-1,3,4-oxadiazol-2-yl)pyridin-2-yl)methyl)-3-fluoro-N-(3-fluorophenyl)-[1,3′-biazetidine]-3-carboxamide]

Continued, molecule first:

Structure (SMILES) | HDAC6 selectivity (fold) (human recombinant HDAC6) | IC50 (human recombinant HDAC6) [nM] | IC50 (human recombinant HDAC1) [nM]
O=C(N(Cc1ccc(-c2nnc(C(F)F)o2)cc1F)c1ccccc1)C1(F)CCN(C2COC2)CC1 [Compound 2869, N-(4-(5-(difluoromethyl)-1,3,4-oxadiazol-2-yl)-2-fluorobenzyl)-4-fluoro-1-(oxetan-3-yl)-N-phenylpiperidine-4-carboxamide] | 464 fold | 108 | > 50000
CCCCN1CC(N2CC(F)(C(=O)N(Cc3ccc(-c4nnc(C(F)F)o4)cn3)c3cccc(F)c3)C2)C1 [Compound 3222, 1′-butyl-N-((5-(5-(difluoromethyl)-1,3,4-oxadiazol-2-yl)pyridin-2-yl)methyl)-3-fluoro-N-(3-fluorophenyl)-[1,3′-biazetidine]-3-carboxamide] | 1,420 fold | 35.2 | > 50000
O=C(N(Cc1ccc(-c2nnc(C(F)F)o2)cn1)c1ccccc1)C1(F)CN(C2CCC2)C1 [Compound 2975, 1-cyclobutyl-N-((5-(5-(difluoromethyl)-1,3,4-oxadiazol-2-yl)pyridin-2-yl)methyl)-3-fluoro-N-phenylazetidine-3-carboxamide] | 1,022 fold | 48.9 | > 50000
O=C(N(Cc1ccc(-c2nnc(C(F)F)o2)cn1)c1cccc(F)c1)C1(F)CN(C2CCOC2)C1 (stereo not drawn) [Compound 3052, N-((5-(5-(difluoromethyl)-1,3,4-oxadiazol-2-yl)pyridin-2-yl)methyl)-3-fluoro-N-(3-fluorophenyl)-1-(tetrahydrofuran-3-yl)azetidine-3-carboxamide] | 854 fold | 58.5 | > 50000
CS(=O)(=O)N1CC(F)(C(=O)N(Cc2ccc(-c3nnc(C(F)F)o3)cc2F)c2ccccc2)C1 [Compound 3436, N-(4-(5-(difluoromethyl)-1,3,4-oxadiazol-2-yl)-2-fluorobenzyl)-3-fluoro-1-(methylsulfonyl)-N-phenylazetidine-3-carboxamide] | 378 fold | 132 | > 50000
O=C(N(Cc1ccc(-c2nnc(C(F)F)o2)cn1)c1cccc(F)c1)C1(F)CCN(C2CCC2)CC1 [Compound 2971, 1-cyclobutyl-N-((5-(5-(difluoromethyl)-1,3,4-oxadiazol-2-yl)pyridin-2-yl)methyl)-4-fluoro-N-(3-fluorophenyl)piperidine-4-carboxamide] | 740 fold | 67.5 | > 50000
CCCN1CCC(N2CC(F)(C(=O)N(Cc3ccc(-c4nnc(C(F)F)o4)cn3)c3cccc(F)c3)C2)CC1 [Compound 3401, N-((5-(5-(difluoromethyl)-1,3,4-oxadiazol-2-yl)pyridin-2-yl)methyl)-3-fluoro-N-(3-fluorophenyl)-1-(1-propylpiperidin-4-yl)azetidine-3-carboxamide] | 1,951 fold | 22.8 | 44500
